Reference: doi:10.1101/2025.11.18.689095 (bioRxiv, 2025)
Where no end group is shown, it is not given here.

Key:
[1] = target: Tom70:Orf9b complex; set-up: species or system human Tom70; SARS-CoV-2 Orf9b; conditions: read-out: binding affinity (KD) of full-length Hsp90 to Tom70:Orf9b complex; pH 8
[2] = target: T1, human Tom70 (residues 108–608) (Homo sapiens, UniProt O94826); experiment: ITC, Hsp90 binding to free Tom70
T1 construct: human Tom70 (residues 108–608); Avi tag (N, cleaved yes); His6 tag (N, cleaved yes); (GGS)5 linker and TEV cleavage site (N, cleaved yes); made in house; host or cells: E. coli BL21 (DE3)
T1 sequence (O94826 108-608): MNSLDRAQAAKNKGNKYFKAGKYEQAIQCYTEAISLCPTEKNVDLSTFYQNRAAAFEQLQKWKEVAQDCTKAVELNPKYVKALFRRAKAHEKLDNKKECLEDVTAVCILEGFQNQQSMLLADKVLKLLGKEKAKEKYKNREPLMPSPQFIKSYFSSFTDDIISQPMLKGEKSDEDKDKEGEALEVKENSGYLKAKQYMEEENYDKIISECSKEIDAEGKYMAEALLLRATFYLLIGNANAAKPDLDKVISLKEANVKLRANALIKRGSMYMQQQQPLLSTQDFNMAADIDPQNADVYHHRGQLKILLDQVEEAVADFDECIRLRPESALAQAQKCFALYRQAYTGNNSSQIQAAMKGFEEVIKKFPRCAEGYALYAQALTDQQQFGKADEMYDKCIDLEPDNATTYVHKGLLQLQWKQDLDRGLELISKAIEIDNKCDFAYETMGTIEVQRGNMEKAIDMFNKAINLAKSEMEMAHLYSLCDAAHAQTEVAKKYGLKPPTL
Method: (§1) All ITC experiments were recorded at 20°C using a Microcal-PEAQ-ITC calorimeter (Malvern Panalytical). Experiments involving full-length Hsp90 or the Hsp90EEVD peptide were carried out in buffer containing 20 mM sodium phosphate (pH 8), 150 mM NaCl, 2 mM TCEP, and 10% glycerol. 10% glycerol was required to prevent precipitation of Hsp90 during titration.
(§2) Unbound Orf9bHelix was removed via multiple rounds of concentration and buffer exchange on a concentrator (Vivaspin 20, Satorius). Orf9b truncation mutant complexes were produced in the same way. Experiments involving the binding of Orf9bHelix titrated into Tom70 were carried out in buffer containing 20 mM sodium phosphate (pH 7), 100 mM NaCl, and 2 mM TCEP. Orf9bHelix (120 μM) was titrated into 15 μM Tom70 or Tom70:Hsp90EEVD complex (15 μM Tom70: 400 μM Hsp90EEVD).
(§3) All data was fit using a 1:1 binding model to obtain the reported thermodynamic parameters using the software provided by the instrument. Reported parameters are the average and standard deviation of individual runs of the experiment, as outlined in supplementary information (Figs S3 and S9).

[3] = test system: Tom70:Orf9b complex; format: binding, human Tom70; SARS-CoV-2 Orf9b
[4] = test system: Tom70; experiment: BLI kinetics, Hsp90 with free Tom70; format: binding, human
Method: We therefore indirectly estimated kon values by combining koff values obtained from BLI with KD values determined by ITC, i.e., kon=koffBLI/KDITC .
Biotinylated Hsp90 proteins were immobilized onto streptavidin biosensor probes, and experiments were conducted in buffer containing 20 mM sodium phosphate (pH 7), 150 mM NaCl, 1% BSA, 0.6 M sucrose, and 1 mM TCEP[68]. […] To combat heterogenous binding, dissociation curves were fit with a two-phase exponential curve. Due to the association rate (kon) being too rapid to quantify, kon values were indirectly estimated by combining koff values obtained from BLI with KD values determined by ITC ( kon=koffBLI/KDITC ). All data are corrected for non-specific binding. Error is given as the standard deviation of at least two measurements.

[5] = target: T2, Tom70:Orf9bHelix complex (Homo sapiens, UniProt O94826); format: binding, human Tom70; SARS-CoV-2 Orf9b; conditions: pH 8
T2 construct: human Tom70 (residues 108–608); Avi tag (N, cleaved yes); His6 tag (N, cleaved yes); (GGS)5 linker and TEV cleavage site (N, cleaved yes); host or cells: E. coli BL21 (DE3) for Tom70; synthetic peptide

[6] = target: T1, human Tom70 (residues 108–608); experiment: ITC, Hsp90EEVD peptide binding to free Tom70; conditions: 20°C, pH 8, 150 mM NaCl, 2 mM TCEP, 10% glycerol, Hsp90EEVD (400–500 μM) into Tom70 (30 μM), mean ± SD of 3 measurements, read-out: KD of Hsp90EEVD to Tom70 alone
Method: as §1, §2, §3

[7] = target: T2, Tom70:Orf9bHelix complex; experiment: biochemical; format: binding, human Tom70; SARS-CoV-2 Orf9b

T2 sequence (P0DTD2 44-77 partner limits assumed, one chain of several): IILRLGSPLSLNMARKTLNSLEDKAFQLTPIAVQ

Row | Substance | Kd [1] | Kd ([2]; 20°C, 20 mM sodium phosphate pH 8, 150 mM NaCl, 2 mM TCEP, 10% glycerol, Tom70 (400 μM) into Hsp90 (20 μM), 1:1 model, mean ± SD of 3 measurements, read-out: binding affinity (KD) of full-length Hsp90 to free Tom70) | thermodynamic signature of binding to free Tom70 ([2]; 20°C, pH 8, Fig 5C) | affinity of full-length Hsp90 to free Tom70 relative to Hsp90EEVD peptide ([2]; higher affinity than the Hsp90EEVD peptide) | kon for Hsp90 binding to Tom70 in presence of bound full-length Orf9b [3] | association rate of Hsp90 to free Tom70 (BLI, direct) ([4]; BLI, 25°C, pH 7, 150 mM NaCl, 1% BSA, 0.6 M sucrose, 1 mM TCEP, Hsp90 immobilized) | kon for Hsp90 binding to free Tom70 ([4]; indirectly estimated, kon = koff(BLI)/KD(ITC), BLI 25°C pH 7, ITC 20°C pH 8, SD of at least two measurements) | thermodynamic signature of binding to Tom70-Orf9bHelix complex [5] | Kd [6] | Kd [7]
1 | Hsp90: human Hsp90α (residues 1–732), expressed in E. coli | 22 ± 1 µM | 3 ± 1 µM | a favorable entropy change was the major driving force | 4 fold | 20000 ± 10000 M⁻¹ s⁻¹ | too rapid to quantify accurately | 500000 ± 200000 M⁻¹ s⁻¹ | driven entirely by a favorable enthalpy change | – | –
2 | YDTSRMEEVD [Hsp90EEVD] | – | – | – | – | – | – | – | – | 12 ± 1 µM | 12 ± 1 µM
